Test results published in PubChem BioAssay AID248 (DTP/NCI, 2004).
Where “and” joins values, the source holds several entries; their conditions need not be identical. Equal values may be shown once. Toxic doses and inconclusive results are not listed.

System: L1210 leukemia ip in BDF1 mice, survival T/C
Assay: NCI In Vivo Anticancer Drug Screen. Data for tumor model L1210 Leukemia (intraperitoneal) in B6D2F1 (BDF1) mice
Details: endpoint: mean survival time, higher = longer survival
How it was run: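 Transplanted-tumor mice were given test agent; controls received vehicle only. Survival readings from the two groups were divided (treated over control).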

[1] = dose: 12.5 mg/kg/injection, schedule: Q04DX003 (ip), vehicle: other
[2] = dose: 50.0 mg/kg/injection, schedule: Q01DX009 (ip), vehicle: saline with Tween-80
[3] = dose: 50.0 mg/kg/injection, schedule: Q01DX009 (ip), vehicle: Klucel (hydroxypropylcellulose) (HPC)
[4] = dose: 100.0 mg/kg/injection, schedule: Q01DX009 (ip), vehicle: Klucel (hydroxypropylcellulose) (HPC)
[5] = dose: 400.0 mg/kg/injection, schedule: Q01DX009 (ip), vehicle: Klucel (hydroxypropylcellulose) (HPC)
[6] = dose: 200.0 mg/kg/injection, schedule: Q01DX009 (ip), vehicle: Klucel (hydroxypropylcellulose) (HPC)
[7] = dose: 100.0 mg/kg/injection, schedule: Q01DX009 (ip), vehicle: saline with Tween-80
[8] = dose: 200.0 mg/kg/injection, schedule: Q01DX009 (ip), vehicle: saline with Tween-80
[9] = dose: 100.0 mg/kg/injection, schedule: Q04DX002 (ip), vehicle: Klucel (hydroxypropylcellulose) (HPC)
[10] = dose: 200.0 mg/kg/injection, schedule: Q04DX002 (ip), vehicle: Klucel (hydroxypropylcellulose) (HPC)
[11] = dose: 400.0 mg/kg/injection, schedule: Q04DX002 (ip), vehicle: Klucel (hydroxypropylcellulose) (HPC)

## CCOC(=O)CCOc1ccccc1N(CCCl)CCCl
dose: 1.2 mg/kg/injection, schedule: Q01DX Z (ip), vehicle: methylcellulose (MC)
  T/C: 110 % of control and 121 % of control
dose: 2.4 mg/kg/injection, schedule: Q01DX Z (ip), vehicle: methylcellulose (MC)
  T/C: 110 % of control and 113 % of control
dose: 3.13 mg/kg/injection, schedule: Q01DX009 (ip), vehicle: other
  T/C: 115 % of control
dose: 4.7 mg/kg/injection, schedule: Q01DX Z (ip), vehicle: methylcellulose (MC)
  T/C: 108 % of control and 111 % of control
dose: 6.2 mg/kg/injection, schedule: Q01DX001 (ip), vehicle: carboxymethylcellulose (CMC)
  T/C: 109 % of control
dose: 8.7 mg/kg/injection, schedule: Q01DX Z (ip), vehicle: methylcellulose (MC)
  T/C: 178 % of control
dose: 9.4 mg/kg/injection, schedule: Q01DX Z (ip), vehicle: methylcellulose (MC)
  T/C: 100 % of control and 120 % of control
[1]
  T/C: 106 % of control
dose: 13.0 mg/kg/injection, schedule: Q01DX Z (ip), vehicle: methylcellulose (MC)
  T/C: 161 % of control
dose: 22.0 mg/kg/injection, schedule: Q01DX001 (ip), vehicle: carboxymethylcellulose (CMC)
  T/C: 109 % of control
dose: 25.0 mg/kg/injection, schedule: Q01DX001 (ip), vehicle: carboxymethylcellulose (CMC)
  T/C: 124 % of control
dose: 25.0 mg/kg/injection, schedule: Q01DX009 (ip), vehicle: saline sonified
  T/C: 110 % of control
dose: 25.0 mg/kg/injection, schedule: Q04DX003 (ip), vehicle: other
  T/C: 106 % of control
dose: 33.0 mg/kg/injection, schedule: Q01DX001 (ip), vehicle: carboxymethylcellulose (CMC)
  T/C: 109 % of control
dose: 44.0 mg/kg/injection, schedule: Q01DX Z (ip), vehicle: methylcellulose (MC)
  T/C: 201 % of control
dose: 50.0 mg/kg/injection, schedule: Q01DX009 (ip), vehicle: saline sonified
  T/C: 114 % of control
[2]
  T/C: 162 % of control
dose: 66.0 mg/kg/injection, schedule: Q01DX Z (ip), vehicle: methylcellulose (MC)
  T/C: 159 % of control
dose: 75.0 mg/kg/injection, schedule: Q01DX001 (ip), vehicle: carboxymethylcellulose (CMC)
  T/C: 112 % of control
dose: 75.0 mg/kg/injection, schedule: Q01DX Z (ip), vehicle: methylcellulose (MC)
  T/C: 86 % of control
dose: 100.0 mg/kg/injection, schedule: Q01DX Z (ip), vehicle: methylcellulose (MC)
  T/C: 109 % of control
dose: 100.0 mg/kg/injection, schedule: Q04DX003 (ip), vehicle: Klucel (hydroxypropylcellulose) (HPC)
  T/C: 90 % of control

## O=C(CNC(=O)NCc1ccco1)N/N=C/c1ccc(Cl)c(Cl)c1
[3]
  T/C: 89 % of control
[4]
  T/C: 86 % of control and 88 % of control
[5]
  T/C: 90 % of control

## O=C(O)c1cc2ccccc2cc1O.Oc1cccc2cccnc12.[Cu]
dose: 0.5 mg/kg/injection, schedule: Q01DX015 (ip), vehicle: carboxymethylcellulose (CMC)
  T/C: 91 % of control
dose: 1.0 mg/kg/injection, schedule: Q01DX015 (ip), vehicle: carboxymethylcellulose (CMC)
  T/C: 91 % of control
dose: 4.0 mg/kg/injection, schedule: Q01DX015 (ip), vehicle: carboxymethylcellulose (CMC)
  T/C: 93 % of control
dose: 8.0 mg/kg/injection, schedule: Q01DX015 (ip), vehicle: carboxymethylcellulose (CMC)
  T/C: 89 % of control and 90 % of control

## O=C(Nc1cc(C(F)(F)F)ccc1Cl)n1cccc1
[4]
  T/C: 113 % of control
[6]
  T/C: 113 % of control
[5]
  T/C: 106 % of control

## CCCC(C)CCCNCCOC(=O)c1cccc(N)c1 (stereo not given)
dose: 75.0 mg/kg/injection, schedule: Q01DX001 (ip), vehicle: other
  T/C: 97 % of control
dose: 150.0 mg/kg/injection, schedule: Q01DX001 (ip), vehicle: other
  T/C: 94 % of control

## O=C(O)c1cccc(I)c1.[Ni]
dose: 25.0 mg/kg/injection, schedule: Q04DX002 (ip), vehicle: gum acacia
  T/C: 100 % of control
dose: 50.0 mg/kg/injection, schedule: Q04DX002 (ip), vehicle: gum acacia
  T/C: 94 % of control

## O=C(Nc1ccsn1)c1ccc(Cl)cc1Cl
[2]
  T/C: 111 % of control
[7]
  T/C: 91 % of control
[8]
  T/C: 91 % of control

## CCCCNCC#N
dose: 50.0 mg/kg/injection, schedule: Q01DX001 (ip), vehicle: saline
  T/C: 110 % of control

## CCc1ccccc1NC(=O)C(Cl)Cl
[9]
  T/C: 100 % of control
[10]
  T/C: 103 % of control
[11]
  T/C: 100 % of control

## Cc1ccc(N2C(=O)CC(c3ccccc3)C2C(=O)O)cc1 (stereo not given)
[9]
  T/C: 100 % of control
[10]
  T/C: 103 % of control
[11]
  T/C: 103 % of control

## S=C(NCCNC(=S)Nc1ccccc1)Nc1ccccc1
[2]
  T/C: 98 % of control
[7]
  T/C: 92 % of control
[8]
  T/C: 92 % of control

## COc1ccc(NC(=O)Nc2cccc(Cl)c2C)cc1
dose: 100.0 mg/kg/injection, schedule: Q01DX009 (sc), vehicle: olive oil, sesame oil, peanut oil
  T/C: 100 % of control
dose: 100.0 mg/kg/injection, schedule: Q04DX003 (sc), vehicle: olive oil, sesame oil, peanut oil
  T/C: 100 % of control
dose: 200.0 mg/kg/injection, schedule: Q01DX009 (sc), vehicle: olive oil, sesame oil, peanut oil
  T/C: 96 % of control
dose: 200.0 mg/kg/injection, schedule: Q04DX003 (sc), vehicle: olive oil, sesame oil, peanut oil
  T/C: 98 % of control
dose: 400.0 mg/kg/injection, schedule: Q01DX009 (sc), vehicle: olive oil, sesame oil, peanut oil
  T/C: 100 % of control
dose: 400.0 mg/kg/injection, schedule: Q04DX003 (sc), vehicle: olive oil, sesame oil, peanut oil
  T/C: 101 % of control

## CCOC(=O)C(C)(C)CN(C)CC(C)(C)C=O
dose: 100.0 mg/kg/injection, schedule: Q04DX002 (ip), vehicle: saline
  T/C: 97 % of control
dose: 200.0 mg/kg/injection, schedule: Q04DX002 (ip), vehicle: saline
  T/C: 108 % of control
dose: 400.0 mg/kg/injection, schedule: Q04DX002 (ip), vehicle: saline
  T/C: 101 % of control

## CCC[CH2][Tl]([Br])[CH2]CCC
dose: 100.0 mg/kg/injection, schedule: Q04DX002 (ip), vehicle: saline with Tween-80
  T/C: 98 % of control
dose: 200.0 mg/kg/injection, schedule: Q04DX002 (ip), vehicle: saline with Tween-80
  T/C: 103 % of control
dose: 400.0 mg/kg/injection, schedule: Q04DX002 (ip), vehicle: saline with Tween-80
  T/C: 106 % of control

## CCOC(=O)C(C#N)N=O (stereo not given)
dose: 6.25 mg/kg/injection, schedule: Q04DX003 (ip), vehicle: Klucel (hydroxypropylcellulose) (HPC)
  T/C: 89 % of control
dose: 12.5 mg/kg/injection, schedule: Q04DX003 (ip), vehicle: Klucel (hydroxypropylcellulose) (HPC)
  T/C: 91 % of control
dose: 25.0 mg/kg/injection, schedule: Q01DX009 (ip), vehicle: Klucel (hydroxypropylcellulose) (HPC)
  T/C: 95 % of control
dose: 25.0 mg/kg/injection, schedule: Q04DX003 (ip), vehicle: Klucel (hydroxypropylcellulose) (HPC)
  T/C: 92 % of control
[3]
  T/C: 103 % of control
dose: 50.0 mg/kg/injection, schedule: Q04DX003 (ip), vehicle: saline
  T/C: 100 % of control
[4]
  T/C: 97 % of control

## COc1cc2ccc(CCNCc3ccccc3)cc2cc1OC
dose: 25.0 mg/kg/injection, schedule: Q01DX009 (ip), vehicle: saline
  T/C: 97 % of control
dose: 50.0 mg/kg/injection, schedule: Q01DX009 (ip), vehicle: saline
  T/C: 91 % of control
dose: 100.0 mg/kg/injection, schedule: Q01DX009 (ip), vehicle: saline
  T/C: 90 % of control
dose: 100.0 mg/kg/injection, schedule: Q04DX003 (ip), vehicle: saline
  T/C: 87 % of control

## CC(=O)Nc1nnc(Sc2ccc([N+](=O)[O-])cc2[N+](=O)[O-])s1
[4]
  T/C: 95 % of control
[6]
  T/C: 95 % of control
[5]
  T/C: 100 % of control

## CNS(=O)(=O)c1ccc(NC(=O)CI)cc1
dose: 3.0 mg/kg/injection, schedule: Q01DX009 (ip), vehicle: Klucel (hydroxypropylcellulose) (HPC)
  T/C: 112 % of control
dose: 6.0 mg/kg/injection, schedule: Q01DX009 (ip), vehicle: Klucel (hydroxypropylcellulose) (HPC)
  T/C: 96 % of control
dose: 12.0 mg/kg/injection, schedule: Q01DX009 (ip), vehicle: Klucel (hydroxypropylcellulose) (HPC)
  T/C: 108 % of control
dose: 12.5 mg/kg/injection, schedule: Q01DX001 (ip), vehicle: other
  T/C: 96 % of control
[1]
  T/C: 93 % of control
dose: 25.0 mg/kg/injection, schedule: Q01DX001 (ip), vehicle: other
  T/C: 96 % of control
dose: 50.0 mg/kg/injection, schedule: Q01DX001 (ip), vehicle: other
  T/C: 88 % of control

## Cc1c(NC(C)C)ccc(NC(C)C)c1C
dose: 100.0 mg/kg/injection, schedule: Q04DX002 (sc), vehicle: olive oil, sesame oil, peanut oil
  T/C: 100 % of control
dose: 200.0 mg/kg/injection, schedule: Q04DX002 (sc), vehicle: olive oil, sesame oil, peanut oil
  T/C: 100 % of control

## CC(C)(O)C(=O)N/N=C/c1ccc(Cl)cc1Cl
dose: 25.0 mg/kg/injection, schedule: Q01DX009 (ip), vehicle: saline with Tween-80
  T/C: 102 % of control
